Read-outs that look alike come from different tables or passages of the source.
Legend:
[1] = system: insulin-stimulated Akt phosphorylation in C2C12 myotubes; assay: C2C12 myotube assay of insulin-stimulated phosphorylation of Akt; assay type: cell-based; conditions: Mus musculus, in the presence of palmitate, read-out: half-maximal effective concentration (EC50) for increasing insulin-stimulated Akt phosphorylation
Description: C2C12 Myotube Assay of Insulin-Stimulated Phosphorylation of Akt:
C2C12 myotubes are treated with 0.75 mM BSA-conjugated palmitate for 16 hours in the presence or absence of 7 non-zero concentrations of fenretinide (Des1 inhibitor control compound) or various test articles, followed by a 10-minute stimulation with insulin (100 nM). Cells are subsequently harvested and boiled in reducing SDS sample buffer and subjected to SDS-PAGE followed by detection of phosphorylated Akt, total Akt, and a suitable loading control (e.g. actin or GAPDH) by western blot using fluorescently-conjugated secondary antibodies. Band intensities are quantitated by an Odyssey imaging system (Li-COR), but could also be performed using HRP-conjugated secondary antibodies/enhanced chemiluminescence or by colorimetric readout.
Moreover, while currently contemplated for SDS-PAGE/immunoblot format, this assay could be adapted to ELISA or in-cell western (immunocytochemistry) formats for higher throughput testing of compounds. An increase of 30% compared to vehicle control (0 μM test article) is indicative of an active compound, and an increase of 50% compared to control is preferred. […] Des1 inhibitors disclosed herein are expected to be effective in this assay.

[2] = target: Des1 (Homo sapiens (Human), UniProt O15121); assay: Jurkat T cell measurement of conversion of dihydroceramide to ceramide; assay type: cell-based; conditions: Jurkat clone E6-1 cells; for inhibition at 0.5 µM: 0.5 μM compound, read-out: Des1 % Inhib (0.5 μM); for inhibition at 1 µM: 1 μM compound, read-out: Des1 % Inhib (1 μM)
Description: Jurkat T Cell Measurement of Conversion of Dihydroceramide to Ceramide
Jurkat clone E6-1 cells were grown and then seeded at 10^6 cells/mL in a 96-well plate (400 μL in each well. The cells were administered 100 μL of cell culture media containing 50-μM NBD-C6-dihydroceramide (Des1 substrate), affording a final concentration of substrate of 10 μM. The cells were incubated with substrate at 4° C. for 30 minutes. Following the incubation at 4° C., the cell suspension was centrifuged at 1200 rpm for 3 minutes, and the cell pellet is resuspended in 400 μL of fresh media containing various concentrations of either fenretinide (known Des1 inhibitor control compound) or test article. The final concentrations of control compound and test compounds were tested in a range from 0-10 μM. The cells and compounds were incubated at 37° C. for 3 hours. Following the 3-hour incubation, the plate was centrifuged at 2500 g for 3 minutes at 4° C., followed by collection and transfer of 200 μL of the supernatant to a new 96-well plate with 300 μL of methanol an containing appropriate internal standards for liquid chromatography/tandem mass spectroscopy (LC/MS/MS) analysis (internal standard: 500 nM labetalol and 100 nM alprazolam). The samples were vortexed for 2 minutes followed by centrifugation at 3,220 g for 20 minutes. Following centrifugation, 200 μL of the supernatant was transferred to a new 96-well plate for LC-MS/MS analysis to determine the amount of NBD-C6-ceramide (Des1 product) produced. The assay was typically performed in duplicate. A reduction of at least 30% compared to vehicle control (0 μM test article) is indicative of an active compound, and a reduction of 75% compared to vehicle control is preferred.

[3] = system: CFTR-KO mice; conditions: cited from earlier work
[4] = NBD-C6-dihydroceramide substrate, read-out: Des1 IC50

Sequence of Des1 (O15121 whole entry): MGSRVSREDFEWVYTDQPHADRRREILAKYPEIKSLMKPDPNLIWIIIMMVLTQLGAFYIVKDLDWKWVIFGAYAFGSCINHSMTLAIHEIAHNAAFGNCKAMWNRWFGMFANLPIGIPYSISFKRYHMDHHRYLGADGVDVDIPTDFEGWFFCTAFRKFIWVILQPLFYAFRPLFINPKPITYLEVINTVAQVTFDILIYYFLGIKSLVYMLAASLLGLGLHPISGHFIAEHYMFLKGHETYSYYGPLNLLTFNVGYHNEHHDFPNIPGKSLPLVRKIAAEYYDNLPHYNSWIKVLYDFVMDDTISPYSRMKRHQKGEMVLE

inhibition at 0.5 µM [2] [%]	IC50 [2, 4] [nM]	Compound	further results
		CC1=C(/C=C/C(C)=C/C=C/C(C)=C/C(=O)Nc2ccc(O)cc2)C(C)(C)CCC1 [fenretinide]	EC50 [1]: 600 nM; IC50 ([2]; read-out: half-maximal inhibitory concentration (IC50)): 100 to 250 nM; susceptibility to infection with Pseudomonas aeruginosa ([3]; CFTR-KO mice): reduce susceptibility to infection with Pseudomonas aeruginosa; lung AA/DHA ratio ([3]; lungs of CFTR-KO mice): normalize this ratio
62.8		O=C(Nc1ccc(O)cn1)c1ccc(-c2ccc(O)cc2)cc1 [Example 21, N-(5-hydroxy-pyridin-2-yl)-4′-hydroxy-biphenyl-4-carboxamide]	
	590	O=C(Nc1ccc(O)cc1)[C@@H]1C[C@H]1c1ccccc1 (relative stereo) [Example 6, (trans)-N-(4-hydroxyphenyl)-2-phenyl-cyclopropane-carboxamide]	inhibition at 10 µM ([2]; 10 μM compound, NBD-C6-dihydroceramide substrate, read-out: Des1 % Inhib (10 μM)): 76%
97.3	5	O=C(CC1CCN(c2ccc(Cl)cc2)CC1)Nc1ccc(O)cn1 [Example 51, 2-[1-(4-chlorophenyl)piperidin-4-yl]-N-(5-hydroxypyridin-2-yl)acetamide]	
88	63	O=C(Nc1ccc(O)cn1)c1ccc(C(F)(F)F)cc1 [Example 44, N-(5-hydroxy-pyridin-2-yl)-4-(trifluoro-methyl)-benzamide]	
		O=C(Nc1ccc(O)cn1)c1ccccc1 [Example 25, N-(5-hydroxy-pyridin-2-yl)-benzamide]	inhibition at 1 µM [2]: 4.44%
59.3		Cc1ccc(C(=O)Nc2ccc(O)cn2)cc1 [Example 43, N-(5-hydroxy-pyridin-2-yl)-4-methylbenz-amide]	
	240	COc1ccc(C(=O)Nc2ccc(O)cn2)cc1 [Example 26, N-(5-hydroxy-pyridin-2-yl)-4-methoxy-benzamide]	inhibition at 1 µM [2]: 74.5%
49.5		O=C(Nc1ccc(O)cn1)C1CCCCC1 [Example 30, N-(5-hydroxy-pyridin-2-yl)-cyclohexane-carboxamide]	
93.7	21	CC(C)OCCCCC(=O)Nc1ccc(O)cn1 [Example 37, N-(5-hydroxy-pyridin-2-yl)-5-isopropoxy-pentanamide]	

Source: patent US11135207B2, “Inhibitors of dihydroceramide desaturase for treating disease” (Centaurus Therapeutics, priority 2016, dated 2021)
